Measurements taken from patent US12611378B2 (Bausch Health Ireland Limited, priority 2020, dated 2026).

Experiment: Regional bioavailability of rifaximin, open-label 5-way crossover study in healthy male subjects
Type: in vivo, human
Settings: based on comparisons of AUC0-24 with AUCact-24, geometric mean
Source text: Blood samples were collected pre-dose and at specified time points after dosing for PK analysis.

CO[C@H]1/C=C/O[C@@]2(C)Oc3c(C)c(O)c4c(O)c(c5c(nc6cc(C)ccn65)c4c3C2=O)NC(=O)/C(C)=C\C=C\[C@H](C)[C@H](O)[C@@H](C)[C@@H](O)[C@@H](C)[C@H](OC(C)=O)[C@@H]1C [Rifaximin, 4-Deoxy-4′-methylpyrido[1′,2′-1,2]imidazo[5,4-c]rifamycin SV]
Frel (Regimen B: 150 mg rifaximin SSD delivered to the proximal small bowel): 36.4% | Frel (Regimen C: 150 mg rifaximin SSD delivered to the distal small bowel): 2.09% | Frel (Regimen D: 150 mg rifaximin SSD delivered to the colon): 0.216% | Frel (Regimen E: 150 mg rifaximin SSD delivered to the mid small bowel): 7.08%
